Assay results as given in ChEMBL document CHEMBL1201862, “PubChem BioAssay data set” (2004).
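Exposure lasted 48 hours, with cells grown in 96-well plates and compounds tested at five concentrations. At the GI50, growth is halved.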 Activity calls are given as the source filed them. Rule as the data show it: active = GI50 up to about 1.1 µM and inactive = higher.

Tests used:
Assay in all cases: NCI-60 cell line screen, 48 h
[1] = system: 786-0
[2] = system: COLO 205
[3] = system: DU-145
[4] = system: HT-29
[5] = system: MDA-MB-231
[6] = system: MDA-MB-435
[7] = system: MDA-N
[8] = system: Malme-3M
[9] = system: SF-268
[10] = system: SF-295
[11] = system: SK-MEL-28
[12] = system: SK-OV-3
[13] = system: SN12C
[14] = system: SR
[15] = system: SW-620
[16] = system: T47D
[17] = system: TK-10
[18] = system: UACC-257
[19] = system: UACC-62
[20] = system: A498

Measured: GI50

CC1C(=NO)C(C)C(c2ccccc2)N(N=O)C1c1ccccc1 (stereo not given)
inactive: [1] 19.6 µM | [2] 17.3 µM | [3] 30.8 µM | [4] 17.4 µM | [5] 16.1 µM | [6] 21.3 µM | [7] 20.1 µM | [8] 17.4 µM | [9] 15 µM | [10] 13.8 µM | [11] 16.7 µM | [12] 4.72 µM | [13] 15.5 µM | [14] 15.5 µM | [15] 21.8 µM | [16] 18.7 µM | [17] 24.1 µM | [18] 23.4 µM | [19] 13.5 µM

CC1(C)C(C#N)=[N+]([O-])C(C)(C)N1O
inactive: [1] > 100 µM | [2] > 100 µM | [3] > 100 µM | [4] > 100 µM | [5] > 100 µM | [6] 37.7 µM | [7] 65.8 µM | [8] > 100 µM | [9] > 100 µM | [10] > 100 µM | [11] > 100 µM | [12] > 100 µM | [13] > 100 µM | [14] > 100 µM | [15] 72.3 µM | [16] > 100 µM | [17] > 100 µM | [18] > 100 µM | [19] > 100 µM

COc1ccc(N[C@H](C[S+]([O-])c2ccc(C)cc2)C(F)(F)F)cc1 (stereo not given in full)
inactive: [1] > 100 µM | [2] > 100 µM | [3] > 100 µM | [4] > 100 µM | [5] > 100 µM | [6] > 100 µM | [7] > 100 µM | [8] > 100 µM | [10] > 100 µM | [11] > 100 µM | [12] > 100 µM | [13] > 100 µM | [14] > 100 µM | [15] > 100 µM | [16] > 100 µM | [17] > 100 µM | [18] > 100 µM | [19] > 100 µM

COc1cccc(N2C(=O)/C(=C\c3ccccc3)SC2c2cc(OC)c(OC)c(OC)c2)c1 (stereo not given)
inactive: [1] 40.9 µM | [20] 28.8 µM | [2] 39.7 µM | [3] 41.2 µM | [4] 45.2 µM | [5] 98.2 µM | [6] 22.6 µM | [7] 17.6 µM | [9] 41.4 µM | [10] 35.5 µM | [11] 96.2 µM | [12] 35.6 µM | [13] 52 µM | [14] 26.3 µM | [16] 17.4 µM | [17] > 100 µM | [18] > 100 µM | [19] 24.1 µM

CCOC(=O)[C@@H]1ON2O[C@H](OC3CCCC3(c3ccccc3)c3ccccc3)C[C@H]3OC(=O)[C@@H]1C32 (stereo not given in full)
inactive: [1] 78 µM | [20] 35.2 µM | [2] 40.6 µM | [3] 25.5 µM | [4] 23.3 µM | [5] 36.6 µM | [6] 30.1 µM | [7] 43.3 µM | [9] 95.9 µM | [10] > 100 µM | [12] > 100 µM | [13] 97.5 µM | [14] 33.7 µM | [15] 28.2 µM | [16] 26.1 µM | [17] 81.3 µM | [18] 52.4 µM | [19] 27 µM

CCCCN(Cc1ccccc1)/C(=N/C#N)N(Cc1ccccc1)Cc1ccccc1
inactive: [1] 17.1 µM | [20] 36.6 µM | [2] 15.7 µM | [3] 34.7 µM | [4] 10.9 µM | [5] 18.7 µM | [6] 15.7 µM | [7] 14.2 µM | [8] 8.59 µM | [9] 18.8 µM | [10] 9.95 µM | [11] 29 µM | [12] 30.2 µM | [13] 18.2 µM | [15] 24.1 µM | [16] 15.8 µM | [17] 38.1 µM | [18] 10.6 µM | [19] 16.1 µM

CN(CCNC(=O)c1nn(-c2ccccc2)c2c1ccc1ccccc12)CCNC(=O)c1nn(-c2ccccc2)c2c1ccc1ccccc12
inactive: [1] 1.67 µM | [20] 2 µM | [2] 1.54 µM | [3] 4.85 µM | [4] 2.94 µM | [5] 1.29 µM | [6] 1.97 µM | [7] 1.75 µM | [8] 2.23 µM | [9] 2.38 µM | [10] 1.61 µM | [11] 1.7 µM | [12] 2.09 µM | [13] 1.88 µM | [15] 2.17 µM | [16] 2.41 µM | [17] 1.4 µM | [18] 1.71 µM | [19] 1.77 µM

Nc1ncnc2c1ncn2C1CCC(COS(N)(=O)=O)C1 (stereo not given)
inactive: [1] > 100 µM | [2] > 100 µM | [3] > 100 µM | [4] > 100 µM | [5] > 100 µM | [6] > 100 µM | [7] > 100 µM | [8] > 100 µM | [9] > 100 µM | [10] > 100 µM | [11] > 100 µM | [12] > 100 µM | [13] > 100 µM | [14] 56.4 µM | [15] > 100 µM | [16] 93.5 µM | [17] > 100 µM | [18] > 100 µM | [19] > 100 µM

COC(CN(C)C(=O)C(C)NC(=O)c1ccccc1)OC (stereo not given)
inactive: [1] > 100 µM | [2] > 100 µM | [3] > 100 µM | [4] > 100 µM | [5] > 100 µM | [6] > 100 µM | [7] > 100 µM | [8] > 100 µM | [9] > 100 µM | [10] > 100 µM | [12] > 100 µM | [13] > 100 µM | [14] > 100 µM | [15] > 100 µM | [16] > 100 µM | [17] > 100 µM | [18] > 100 µM | [19] > 100 µM

c1ccc([P+](CCNCCNCC[P+](c2ccccc2)(c2ccccc2)c2ccccc2)(c2ccccc2)c2ccccc2)cc1
inactive: [1] > 100 µM | [20] > 100 µM | [2] > 100 µM | [3] > 100 µM | [4] > 100 µM | [5] > 100 µM | [6] > 100 µM | [7] > 100 µM | [9] > 100 µM | [10] > 100 µM | [11] > 100 µM | [12] > 100 µM | [13] > 100 µM | [15] > 100 µM | [16] > 100 µM | [17] > 100 µM | [18] > 100 µM | [19] > 100 µM
